Consider one substance from patent US20210038732A1, “ANTICANCER MICRORNA AND LIPID FORMULATIONS THEREOF” (INTERNA TECHNOLOGIES B.V., priority 2018, published 2021).

The subject of one data set is Huh7. Nature of the data set: Caspase 3/7 apoptosis assay. In kind it is cell-based, human. The conditions noted are these: 10 nM, normalized to mock. The protocol: (§1) Depending on cancer cell type 3000-6000 cells were seeded in a 96 well plate. After cells attached, they were transfected with different concentrations of miRNA-193a and apoptosis induction was measured at different time points. This assay was performed using Promega kit. 100 uL of caspase reagent was added to 100 uL of media in each well in 96-well plate and incubated for 2 hours in the dark at room temperature. The luminescent signal was read on a luminescent plate reader.
(§2) Different biological effects of miRNA-193a-3p have been tested in various cancer cell lines (see Table 13). For this, various cells were treated with miRNA-193a at different concentrations (1, 3, 10 nM). For all experiments controls (untreated, mock and scrambled) were measured. All assays were performed at 24h, 48h and 72h time points. Data shown in Table 13 are the results for miRNA-193a at 10 nM concentration at indicated time points. All the results have been quantified and normalized to the mock control.
(§3) miRNA-193a treatment in various cancer cell lines decreased cell viability over time as measured by either an MTS assay or by cell count. It enhanced apoptosis induction over time as measured by a caspase 3/7 apoptosis assay. […] It is of note that due to intrinsic characteristics and gene mutation status of each cell line, performing one method to detect apoptosis is not always ideal for all cell lines.

Data set [1] concerns A2058. As to the kind of experiment: Caspase 3/7 apoptosis assay. In kind it is cell-based, human. The following applies: 10 nM, normalized to mock. As for the experimental part:
as §1, §2, §3

The next data set deals with A549, H460. As to the kind of experiment: Caspase 3/7 apoptosis assay. In kind it is cell-based, human. The conditions noted are these: 10 nM, normalized to mock. The protocol: as §1, §2, §3
A further data set relates to HeP3B, SNU449. Nature of the data set: Caspase 3/7 apoptosis assay. In kind it is cell-based, human. The following applies: 10 nM, normalized to mock. The protocol:
as §1, §2, §3

A further data set concerns 4T1 cells. As to the kind of experiment: Adoptive CD3+ T-cell transfer from survivors into naive mice, 4T1 challenge. The following applies: 1×107 CD3+ T-cells iv; followed about 5 weeks; vs control naïve mice. The data set is classed as in vivo. The protocol: Adoptive transfer of CD3+ T cells form the survivor mice into naive mice was performed after spleens, auxiliary, brachial, and inguinal lymph nodes excision. Cell suspension were made from the indicated organs and pooled. Then, CD3+ T-cells were isolated from the pool using magnetic beads according the manufacturer's protocol (Miltenyi Biotech). 1×107 CD3+ T-cells per mouse were injected intravenously.
On day 133 post-tumor cell inoculation CD3+ T-cells were recovered from the spleens, auxiliary, brachial, and inguinal lymph nodes of the surviving animals. T-cells were pooled and transferred i.v. to 6 naïve age-matched mice (1×107 CD3+ Tcells per mouse at day 0). One day post-T-cell transfer, animals were re-challenged with 3×10^5 4T1 cells in PBS (0.1 mL/mouse) in the right mammary fat pad of 6 naive age-matched mice (as control group) and the 6 mice that received CD3+ T-cells. Tumor growth was followed for about 5 weeks.

Data set [2] has as its system A2058. As to the kind of experiment: Cell motility, Boyden chamber assay. In kind it is cell-based, human. The conditions noted are these: 10 nM. As for the experimental part:
To check the migratory ability of cells, a Boyden Chamber assay was performed, which is based on a chamber of two medium-filled compartments separated by a […] pore size membrane (BD falcon). In this assay, depending on cell type 60,000-120,000 cells were seeded in the upper compartment of the membrane in serum free medium and were allowed to migrate through the pores of the membrane into the lower compartment, in which serum is present in the media. The serum acts as a chemoattractant. After an appropriate incubation time, the membrane between two compartments was fixed, stained and 6 different images from each membrane were taken. The number of migratory cells were counted using Image J analysis.
as §2, §3

In data set [3] the test system is subq human A2058 melanoma tumors. Nature of the data set: Tumor growth inhibition in mice bearing subq A2058 tumors (Example 4.2). In kind it is in vivo. The protocol:
To determine TGI effects, the T/C (tumor/control) ratio was determined by calculating the relative percentage increase in TV (tumor volume) for the individual mice of each group (TV of the day of randomization as reference point), and then dividing the group median relative increase in TV for the treated groups by that for the PBS group. Outliers (with respect to individual TVs) within each treatment group were determined by using the formulas Q1−1.5×IQR (lower limit) and Q3+1.5×IQR (upper limit).
Statistical analysis was performed using Graphpad Prism 7. A two-tailed, non-parametric Mann-Whitney test was used to calculate differences in relative tumor volumes (TV on day ‘X’ divided by TV on the day of randomization). In all statistical tests, the effect of the test items was compared to the PBS group. A p-value <0.05 was considered statistically significant.
Four to six weeks old female athymic nude mice (Crl:NU(NCr)-Foxn1nu; Charles River) were unilaterally and subcutaneously injected in the flank with 1×10^7 A2058 cells in 50% matrigel (0.2 mL/mouse). At the time of randomization, the TVs (tumor volumes) ranged between 139.4 and 245.5 mm3 (median 161.3, IQR=149.9-175.1). Body weights and TVs (caliper measurements) were determined three times/week. […]

For a further data set, the system named is EMT6. Nature of the data set: Caspase 3/7 apoptosis assay. The following applies: 10 nM, normalized to mock. The data set is classed as cell-based. As for the experimental part: as §1, §2, §3
For a further data set, the system named is Panc-1. Nature of the data set: Caspase 3/7 apoptosis assay. The data set is classed as cell-based. The conditions noted are these: 10 nM, normalized to mock. The protocol:
as §1, §2, §3

Another data set relates to H1299. Nature of the data set: Caspase 3/7 apoptosis assay. The following applies: 10 nM, normalized to mock. The data set is classed as cell-based. The protocol: as §1, §2, §3
The test system of data set [4] is K-Ras, MCL1, ENTPD1 (CD39) and TIM-3. As to the kind of experiment: PD effect: target gene mRNA in orthotopic 4T1 tumors by qPCR (Example 4.6). In kind it is in vivo, mice. The following applies: 10 mg/kg iv QDx2; various time points 2-72 h post final dose. The protocol:
To prepare cDNA, first 100 ng total RNA was mixed with Random Hexamers (Qiagen; final concentration 2 μM) in a final volume of 12.5 μl in NFW, denatured for 5 min at 70° C. and immediately cooled on ice. Next, 7.5 μl of a cDNA synthesis mix was added, consisting of 4 μl 5×RT Buffer (Promega), 0.4 μl 25 mM dNTPs (Promega), 1 μl 200 U/μL MMLV RT-enzyme (Promega), 0.5 μL 40 U/μL RNAse Inhibitor (Promega) and 1.6 μL NFW. The following cDNA synthesis protocol was used:
Six to eight weeks old female BALB/c mice (Shanghai Lingchang Bio-Technology Co. Ltd, Shanghai, China) were injected with 3×10^5 4T1 mouse tumor cells in PBS (0.1 mL/mouse) into the mammary fat pad. At the time of randomization, the tumor volumes (TVs) ranged between 252.30-370.45 mm^3. After randomization mice received similar treatments with similar dosing regimen (see Table 11). Mice were sacrificed at pre-determined time points (see Table 11). The tumors from each mouse were collected, snap frozen in liquid nitrogen and then stored at −80° C.
Assessed genes include K-Ras, MCL1, ENTPD1 (CD39) and TIM-3. The role and biological importance for these target genes is briefly discussed in Table 12.

Take “miRNA-193a: duplex of the miRNA-193a-3p of SEQ ID NO: 218 (mimic, sense) with antisense strand SEQ ID NO: 219; naked in vitro, formulated in vivo (sense UGGGACUUUGUAGGCCAGUUTT; antisense AACUGGCCUACAAAGUCCCAGU; chemistry not given here; listed as Homo sapiens)”: the “Apoptosis (48/72 h)” value in the data set with Huh7 is on record as “↑ (Induction < 2x)”; with A2058 [1], “↑↑ (Induction > 2x)”; with A549, H460, “↑↑ (Induction > 2x)”; in the data set on HeP3B, SNU449, “↑ (Induction < 2x)”; in the data set on EMT6 it was “↑↑ (Induction > 2x)”; with Panc-1, “↑↑ (Induction > 2x)”. The “Apoptosis (48/72 h)” value in the data set with H1299 is listed as “↑ (Induction < 2x)”. Moreover, the “4T1 tumor growth in naive mice that received CD3+ T-cells from treated survivors” value with 4T1 cells is reported as “did not show any 4T1 tumor growth”. In addition, the “Motility (18 to 24 h)” value with A2058 [2] is reported as “↓”. Also, in data set [3] (3 mg/kg iv QDx5 then BIW, Table 1 entry 1 nanoparticles, 12 days after start of treatment), the “T/C (relative tumor volume)” value is on record as 0.44. Further, the TGI effects result in data set [3] (formulated in nanoparticles according to the invention, 3 mg/kg iv) is “significant TGI effects”. Besides, in [4], the “Target mRNAs expression in tumor” value is “significant reduction”.
